Data from ChEMBL document CHEMBL4483862, “Open-source discovery of chemical leads for next-generation chemoprotective antimalarials” (2018).

System: Plasmodium berghei
Experiment: Luciferase/luciferin-expressing antifolate-resistant parasites were used to infect a culture of HepG2 cells that were pre-incubated with compounds. Infected hepatocytes emit light due to the luciferase reaction. Assay results are presented as the percent inhibition of light emission compared to control. […]
Format: functional
Details: sporozoite; for IC50: read-out: LUCIFERASE INFECTION ASSAY - IC50; for IC90: read-out: LUCIFERASE INFECTION ASSAY - IC90

Row | SMILES | IC50 [µM] | IC90 [µM]
1 | Cc1noc2nc(C3CC3)cc(C(=O)Oc3ccc(N4CCCC4=O)cc3)c12 | > 10 | > 10
2 | O=C(c1cc(S(=O)(=O)Nc2cccc(-n3cccn3)c2)c[nH]1)N1CCCC1 | 9.51 | > 10
3 | CC(Sc1nnc2ccc(C(F)(F)F)cn12)C(=O)NCC1CCCO1 (centres undefined) | > 10 | > 10
4 | N#Cc1cccc(-c2nnco2)c1 | > 10 | > 10
5 | Nc1cc(-c2ccc(Br)s2)n[nH]1 | > 10 | > 10
6 | O=C(CNC(=O)c1ccc(N2CCCC2=O)cc1)NCCCn1cccn1 | > 10 | > 10
7 | Cc1ccc(-c2cc(C(=O)N(C)Cc3ccc(C(=O)NC4CC4)cc3)on2)cc1 | > 10 | > 10
8 | Cc1ccc(C(=O)Nc2ccnn2CC(C)C)cn1 | > 10 | > 10
9 | Nc1nc(SCc2cc(=O)n3c(n2)sc2ccccc23)nc2sccc12 | > 10 | > 10
10 | Cc1ccc2nc(NC(=O)c3ccc(OCc4nccn4C)cc3)sc2c1 | > 10 | > 10
11 | Cc1cc(C(=O)Nc2ccncc2Cl)c(C)s1 | > 10 | > 10
12 | Cc1c(C(=O)OCc2ccccc2C(F)(F)F)sc2ncn(C)c(=O)c12 | 8.3 | > 10
13 | CC(OC(=O)c1cccc(Cl)c1N)C(=O)N(C(C)C)C(C)C (centres undefined) | > 10 | > 10
14 | Cn1c(=O)[nH]c(=O)c2c1nc(Nc1ccc(Cl)cc1Cl)n2CC(=O)O | > 10 | > 10
15 | CN(C)C(CNc1cc(C(=O)NC2CC2)c2ccccc2n1)Cc1ccccc1 (centres undefined) | > 10 | > 10
16 | N#Cc1cnc2c(Cl)cc(F)cc2c1Cl | > 10 | > 10
17 | COc1cccc(CC(=O)Nc2ccc(N3CCNC(=O)C3)c(Cl)c2)c1 | > 10 | > 10
18 | NC(=O)C1CN(S(=O)(=O)c2cc(Cl)sc2Cl)c2ccccc2O1 (centres undefined) | > 10 | > 10
19 | NC(=O)c1ccc(N2CCNCC2)nc1 | > 10 | > 10
20 | O=C(NCc1ccc(N2CCCCC2)nc1)c1cccc2c[nH]nc12 | > 10 | > 10
21 | CN(CCO)C(=O)NCCC(c1ccccc1)c1ccccc1 | > 10 | > 10
22 | CN(Cc1ccccc1)C(=O)Nc1cccc2ncccc12 | > 10 | > 10
23 | O=C(Cc1csc(-c2ncccn2)n1)Oc1ccc(N2CCCC2=O)cc1 | > 10 | > 10

Row | SMILES | IC50 [µM] | IC90 [µM]
24 | Nc1nc(CSc2nccc(C(F)(F)F)n2)nc(Nc2ccc(F)cc2)n1 | > 10 | > 10
25 | COC(=O)C1CC2CCCCC2N1C(=O)c1nn(C)c(=O)c2ccccc12 (centres undefined) | > 10 | > 10
26 | CN(CC(=O)Nc1nc(-c2c[nH]c3ccccc23)cs1)C1CCCCC1 | > 10 | > 10
27 | N#Cc1ccc(NC(=O)C2CC2(Cl)Cl)cc1 (centres undefined) | > 10 | > 10
28 | Cc1cc(OCC(=O)NC(C)c2ccc(-n3cncn3)cc2)no1 (centres undefined) | > 10 | > 10
29 | CN(Cc1nc2ccccc2[nH]1)c1nccc(C(F)(F)F)n1 | > 10 | > 10
30 | O=C(C1CCCO1)N1CCn2c1nc1ccccc12 (centres undefined) | > 10 | > 10
31 | C=CCNC(=O)NCC(=O)Nc1ccc(OC)c(Cl)c1 | > 10 | > 10
32 | C=CCn1cnnc1SCC(=O)c1cccn1C | > 10 | > 10
33 | Cc1nc(Sc2ncnc3c(Br)cccc23)sc1CC(N)=O | > 10 | > 10
34 | Cc1nn2c(=O)cc(Cn3ccnc3)nc2s1 | > 10 | > 10
35 | O=C(Nc1cccc(Cl)c1)N1CCN(C(=O)c2ccoc2)CC1 | > 10 | > 10
36 | O=C(NC1CC1)c1ccc(CN(C2CC2)S(=O)(=O)c2cccc3c2N=S=N3)cc1 | > 10 | > 10
37 | Cn1c(Cl)cnc1CN1CCN(CC(=O)Nc2ccccc2Cl)CC1 | > 10 | > 10
38 | Cc1cc(NC(=O)C2CC2)sc1C(=O)N1CCNC(=O)C1 | > 10 | > 10
39 | CCCN(CC(=O)Nc1scc(-c2ccccc2)c1C(=O)OCC)Cc1nnc(-c2ccco2)o1 | > 10 | > 10
40 | CCCC1NC(=O)N(CC(O)COc2cccc(C(=O)OCC)c2)C1=O (centres undefined) | > 10 | > 10
41 | Cn1cc(/C=C/C(=O)c2ccc(-c3ccc(F)cc3)s2)cn1 | > 10 | > 10
42 | Cc1ccc(NC(=O)c2ccc(S(=O)(=O)N3CCOCC3)o2)cc1Cl | > 10 | > 10
43 | Cn1c(NCCOc2cccc3c2OC(C)(C)C3)c(C#N)c(=O)n(C)c1=O | > 10 | > 10
44 | c1ccc(-c2nnc(CSC3=NCCS3)o2)cc1 | > 10 | > 10
45 | Cn1cc(S(=O)(=O)Nc2cccc(CN3C(=O)CNC3=O)c2)cc1C(N)=O | > 10 | > 10
46 | CC(C(=O)NC(C)(C)C)N1CCN(CC(=O)Nc2ccc(F)cc2)CC1 (centres undefined) | > 10 | > 10

Row | SMILES | IC50 [µM] | IC90 [µM]
47 | Cc1nnc(N(C)CCCc2n[nH]c(N)c2C#N)c2ccccc12 | > 10 | > 10
48 | N#Cc1ccccc1S(=O)(=O)Nc1cccc(-n2cccn2)c1 | > 10 | > 10
49 | Cc1cc(C(=O)Nc2nc3ccccc3s2)c(C)n1C(C)C | 0.121 | 0.946
50 | Cc1nn(CC(=O)Nc2cc(C(F)(F)F)ccc2Oc2ccc(Br)cc2)c(=O)c(C#N)c1C | > 10 | > 10
51 | CCNC(=O)CNC(=O)c1ccc(C(C)(C)C)cc1 | > 10 | > 10
52 | Cc1nc(Cc2nc(-c3ccc(S(C)(=O)=O)cc3)cs2)cs1 | > 10 | > 10
53 | Cc1ccc(-c2nc(C)sc2CC(=O)NC2CCN(C3CC3)C2)cc1 (centres undefined) | > 10 | > 10
54 | CN(Cc1cn(-c2ccccc2)nc1-c1ccccc1)C(=O)NCCCc1nc2ccccc2[nH]1 | > 10 | > 10
55 | COc1ccc(F)cc1-c1csc(-c2ccc(NC(=O)c3cccs3)cc2)n1 | > 10 | > 10
56 | CNS(=O)(=O)Cc1ccccc1CNCc1ccc(OC(F)F)cc1 | > 10 | > 10
57 | O=S(=O)(C1=Cc2ccccc2CC1)N1CCOC2CCCCC21 (centres undefined) | > 10 | > 10
58 | Cc1cc(N2CCOCC2)ccc1NC(=O)CC1C=CCC1 (centres undefined) | > 10 | > 10
59 | COC(=O)c1cc([N+](=O)[O-])ccc1N1CCN(c2cc(C)nc(C(C)C)n2)CC1 | > 10 | > 10
60 | COC(=O)c1cc2ccccc2cc1OC(=O)COc1ccc(C#N)cc1 | > 10 | > 10
61 | CC(N)C(=O)NCC(F)(F)F (centres undefined) | > 10 | > 10
62 | N#Cc1ccccc1S(=O)(=O)Oc1ccccc1C(F)(F)F | > 10 | > 10
63 | Cc1sc(NC(=O)CC(C)NC(=O)c2ccccc2)nc1-c1ccc(F)c(F)c1 (centres undefined) | > 10 | > 10
64 | O=C(NCCCC(=O)N1CCC(c2ccc(O)cc2)CC1)c1ccsc1 | > 10 | > 10
65 | O=C(O)Cc1csc(-c2cc(Br)cs2)n1 | > 10 | > 10
66 | Cc1cc(C)n2nc(C(=O)OCC(=O)N(C)Cc3ccsc3)nc2n1 | > 10 | > 10
67 | Cc1nnc(-c2cccc(NC(=O)c3ccc4c(c3)CCO4)c2)[nH]1 | > 10 | > 10
68 | CC(C)(C)C(=O)N1CCC(C(=O)N(Cc2ccccc2)c2nc3c(s2)CCCC3)CC1 | > 10 | > 10
69 | CCOC(=O)C1=C(Cn2ccnc2)NC(=O)NC1CC (centres undefined) | > 10 | > 10

Row | SMILES | IC50 [µM] | IC90 [µM]
70 | Clc1ccc2c(NCCCNc3ccccn3)ncnc2c1 | > 10 | > 10
71 | Cc1nnc(SC2CCCCC2=O)n1C1CCCCC1 (centres undefined) | > 10 | > 10
72 | Cc1ccc2nc(COc3ccc(C(=O)NC4(C)CCS(=O)(=O)C4)cc3)cn2c1 (centres undefined) | > 10 | > 10
73 | COc1ccc(-c2ccc(CCC(=O)Nc3sccc3C#N)o2)cc1 | 7.82 | > 10
74 | Cn1cnnc1-c1cccc(NC(=O)c2ccc(=O)n(Cc3ccccc3)n2)c1 | > 10 | > 10
75 | COC(=O)c1cccc2c1CCCN2C(=O)CCN1C(=O)C2CCCCC2C1=O (centres undefined) | > 10 | > 10
76 | CC(Cc1ccco1)NCc1ccc(-n2ccnc2)cc1 (centres undefined) | > 10 | > 10
77 | CCN(CC)S(=O)(=O)c1ccc(=O)n(Cc2nc(N)nc(N(C)C)n2)c1 | > 10 | > 10
78 | COc1cc(CNC(=O)c2scnc2C)ccc1OC1CCCC1 | 2.89 | > 10
79 | NC(=O)N1CCCC(C(=O)N2CCCC(c3nc4ccccc4s3)C2)C1 (centres undefined) | > 10 | > 10
80 | CNS(=O)(=O)c1ccc(CCC(=O)OC2CCCCC2=O)cc1 (centres undefined) | > 10 | > 10
81 | CC(NC(=O)Nc1ccc(C#N)c(Cl)c1)c1cccs1 (centres undefined) | > 10 | > 10
82 | CCc1cc(Cl)n2nc(C(=O)OC)nc2n1 | > 10 | > 10
83 | O=C1/C(=C/c2ccc(-n3cncn3)c(F)c2)CSc2ccccc21 | > 10 | > 10
84 | O=C1COc2cc(C(=O)Oc3ccc4ccccc4c3Br)ccc2N1 | > 10 | > 10
85 | O=C(NCc1ccccn1)c1ccc2nc3n(c2c1)CCC3 | > 10 | > 10
86 | CCOc1cc(CN(C)c2cncc(-n3cccn3)n2)ccc1OC(F)F | > 10 | > 10
87 | Cc1[nH]c(C(=O)N2CCN(CC3CCCCC3)CC2)c(C)c1C(=O)OC(C)C | > 10 | > 10
88 | Cc1cnc2c(S(=O)(=O)NCc3csc(-c4ccccc4)n3)cccc2c1 | > 10 | > 10
89 | CCn1c(=O)n(Cc2cc(Cl)c3c(c2)OCO3)c2ccccc21 | > 10 | > 10
90 | CN(CCCN1C(=O)c2ccccc2C1=O)CC(=O)N(C)C | > 10 | > 10
91 | CCc1nnc(NC(=O)c2csc(Cc3ccccc3)n2)s1 | 8.84 | > 10
92 | CCNC(=O)c1cccc(NC(=O)CCC(=O)c2cc(C)ccc2C)c1 | > 10 | > 10
